From publication PMC12257413, “Discovery of a Novel sp^3‑Rich M1 Positive Allosteric Modulators (PAMs) Chemotype via Scaffold Hopping” (ACS Medicinal Chemistry Letters, 2025)

Test: Intrinsic clearance in rat hepatic microsomes, predicted hepatic clearance
Type: in vitro ADME
Conditions: predicted hepatic clearance from rat hepatic microsomes
Description: A similar approach was used to determine the degree of brain homogenate binding, which employed the same methodology and procedure with the following modifications: 1) a final compound concentration of 1 μM was used, 2) naïve rat brains were homogenized in DPBS (1:3 composition of brain: DPBS, w/w) using a Mini-Bead Beater™ machine in order to obtain brain homogenate, which was then treated in the same manner as the plasma samples in the previously described plasma protein binding assay. […]
same manner as the plasma samples in the previously described plasma protein binding assay. Fraction unbound for both plasma and brain samples was determined using Equation 4.
Equation 4 Determination of fraction unbound in plasma.
The diluted fraction unbound (fu2) in brain was calculated in the same manner by using brain homogenate rather than plasma. Undiluted fraction unbound for the brain was calculated using Equation 5 […]
Equation 5 Determination of fraction unbound in brain. […]
Human or rat hepatic microsomes (0.5 mg/mL) and 1 µM test compound were incubated in 100 mM potassium phosphate pH 7.4 buffer with 3 mM MgCl 2 at 37 °C with constant shaking. […] The in vitro half-life (1/2, min, Eq. 1), intrinsic clearance (CL int, mL/min/kg, Eq. 2), and subsequent predicted hepatic clearance (CLhep, mL/min/kg, Eq. 3) was determined employing the following equations: […]

SMILES | Rat CLHEP
Cn1cc(-c2ccc(Cc3cc(C(=O)N[C@H]4CCCC[C@@H]4O)nn3C3CCCC3)cc2)cn1 [17k] | 49.5 mL/min/kg
Cn1cc(-c2ccc(Cc3cc(C(=O)N[C@H]4CCOC[C@@H]4O)nn3C3CCCC3)cc2)cn1 [17g] | 32.8 mL/min/kg
